Read-outs that look alike come from different tables or passages of the source.
What was measured:
ERN1 = ERN1 (Homo sapiens, UniProt O75460); set-up: method as in earlier work; settings: Table S1; cited from earlier work
NDR2 = target: T1, NDR2 (Homo sapiens, UniProt Q9Y2H1); experiment: KINOMEscan panel screen; assay type: binding; settings: read-out: Percent Control(%)
T1 construct: purchased DiscoveRx KINOMEscan (Ambit Biosciences)

MAP4K4 = target: T2, MAP4K4 (Homo sapiens, UniProt O95819); experiment: KINOMEscan panel screen; assay type: binding; settings: read-out: Percent Control(%)
T2 construct: purchased DiscoveRx KINOMEscan (Ambit Biosciences)

MARK2 = target: T3, MARK2 (Homo sapiens, UniProt Q7KZI7); experiment: KINOMEscan panel screen; assay type: binding; settings: read-out: Percent Control(%)
T3 construct: purchased DiscoveRx KINOMEscan (Ambit Biosciences)

NEK1 = target: T4, NEK1 (Homo sapiens, UniProt Q96PY6); experiment: KINOMEscan panel screen; assay type: binding; settings: read-out: Percent Control(%)
T4 construct: purchased DiscoveRx KINOMEscan (Ambit Biosciences)

PRKD1 = target: T5, PRKD1 (Homo sapiens, UniProt Q15139); experiment: KINOMEscan panel screen; assay type: binding; settings: read-out: Percent Control(%)
T5 construct: purchased DiscoveRx KINOMEscan (Ambit Biosciences)

[1] = target: T6, ABL1(Q252H)-nonphosphorylated (Homo sapiens, UniProt P00519, Q252H); experiment: KINOMEscan panel screen; assay type: binding; settings: read-out: Percent Control(%)
T6 construct: purchased DiscoveRx KINOMEscan (Ambit Biosciences)

[2] = target: T7, ABL1(Q252H)-phosphorylated (Homo sapiens, UniProt P00519, Q252H); experiment: KINOMEscan panel screen; assay type: binding; settings: read-out: Percent Control(%)
T7 construct: purchased DiscoveRx KINOMEscan (Ambit Biosciences)

CDKL5 = target: T8, CDKL5 (Homo sapiens, UniProt O76039); experiment: KINOMEscan panel screen; assay type: binding; settings: read-out: Percent Control(%)
T8 construct: purchased DiscoveRx KINOMEscan (Ambit Biosciences)

AKT3 = target: T9, AKT3 (Homo sapiens, UniProt Q9Y243); experiment: KINOMEscan panel screen; assay type: binding; settings: read-out: Percent Control(%)
T9 construct: purchased DiscoveRx KINOMEscan (Ambit Biosciences)

FLT3(N841I) = target: T10, FLT3(N841I) (Homo sapiens, UniProt P36888, N841I); experiment: KINOMEscan panel screen; assay type: binding; settings: read-out: Percent Control(%)
T10 construct: purchased DiscoveRx KINOMEscan (Ambit Biosciences)

EPHA1 = target: T11, EPHA1 (Homo sapiens, UniProt P21709); experiment: KINOMEscan panel screen; assay type: binding; settings: read-out: Percent Control(%)
T11 construct: purchased DiscoveRx KINOMEscan (Ambit Biosciences)
T11 sequence (P21709 26-976): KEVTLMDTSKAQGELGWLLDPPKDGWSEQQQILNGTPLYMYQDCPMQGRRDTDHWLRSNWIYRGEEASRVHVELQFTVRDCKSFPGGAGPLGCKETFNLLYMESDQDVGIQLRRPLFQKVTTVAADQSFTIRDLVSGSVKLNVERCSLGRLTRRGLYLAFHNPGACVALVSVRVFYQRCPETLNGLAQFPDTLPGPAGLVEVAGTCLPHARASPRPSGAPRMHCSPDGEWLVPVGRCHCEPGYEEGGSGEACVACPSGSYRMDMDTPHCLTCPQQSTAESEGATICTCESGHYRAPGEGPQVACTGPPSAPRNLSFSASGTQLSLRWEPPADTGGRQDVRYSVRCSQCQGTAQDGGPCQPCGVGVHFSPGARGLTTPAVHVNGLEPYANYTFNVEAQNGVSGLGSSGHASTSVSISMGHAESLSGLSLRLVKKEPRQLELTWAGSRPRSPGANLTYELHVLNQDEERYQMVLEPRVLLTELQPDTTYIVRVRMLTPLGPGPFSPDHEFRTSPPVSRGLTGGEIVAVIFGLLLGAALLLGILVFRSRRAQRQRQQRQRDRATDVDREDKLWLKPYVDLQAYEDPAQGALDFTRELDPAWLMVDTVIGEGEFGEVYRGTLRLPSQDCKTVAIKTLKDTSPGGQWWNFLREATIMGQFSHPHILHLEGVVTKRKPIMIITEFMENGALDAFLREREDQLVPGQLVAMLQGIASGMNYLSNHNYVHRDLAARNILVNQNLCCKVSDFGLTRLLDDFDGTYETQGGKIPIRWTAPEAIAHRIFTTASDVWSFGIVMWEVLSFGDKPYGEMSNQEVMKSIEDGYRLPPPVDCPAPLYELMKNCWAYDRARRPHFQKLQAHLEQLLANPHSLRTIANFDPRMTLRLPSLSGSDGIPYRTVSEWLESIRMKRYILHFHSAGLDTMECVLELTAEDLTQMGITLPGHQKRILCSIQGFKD

AMPK-alpha1 = target: T12, AMPK-alpha1 (Homo sapiens, UniProt Q13131); experiment: KINOMEscan panel screen; assay type: binding; settings: read-out: Percent Control(%)
T12 construct: purchased DiscoveRx KINOMEscan (Ambit Biosciences)

DAPK1 = target: T13, DAPK1 (Homo sapiens, UniProt P53355); experiment: KINOMEscan panel screen; assay type: binding; settings: read-out: Percent Control(%)
T13 construct: purchased DiscoveRx KINOMEscan (Ambit Biosciences)

HPK1 = target: T14, HPK1 (Homo sapiens, UniProt Q92918); experiment: KINOMEscan panel screen; assay type: binding; settings: read-out: Percent Control(%)
T14 construct: purchased DiscoveRx KINOMEscan (Ambit Biosciences)

AAK1 = target: T15, AAK1 (Homo sapiens, UniProt Q2M2I8); experiment: KINOMEscan panel screen; assay type: binding; settings: read-out: Percent Control(%)
T15 construct: purchased DiscoveRx KINOMEscan (Ambit Biosciences)

TRPM6 = target: T16, TRPM6 (Homo sapiens, UniProt Q9BX84); experiment: KINOMEscan panel screen; assay type: binding; settings: read-out: Percent Control(%)
T16 construct: purchased DiscoveRx KINOMEscan (Ambit Biosciences)
T16 sequence (Q9BX84 whole entry): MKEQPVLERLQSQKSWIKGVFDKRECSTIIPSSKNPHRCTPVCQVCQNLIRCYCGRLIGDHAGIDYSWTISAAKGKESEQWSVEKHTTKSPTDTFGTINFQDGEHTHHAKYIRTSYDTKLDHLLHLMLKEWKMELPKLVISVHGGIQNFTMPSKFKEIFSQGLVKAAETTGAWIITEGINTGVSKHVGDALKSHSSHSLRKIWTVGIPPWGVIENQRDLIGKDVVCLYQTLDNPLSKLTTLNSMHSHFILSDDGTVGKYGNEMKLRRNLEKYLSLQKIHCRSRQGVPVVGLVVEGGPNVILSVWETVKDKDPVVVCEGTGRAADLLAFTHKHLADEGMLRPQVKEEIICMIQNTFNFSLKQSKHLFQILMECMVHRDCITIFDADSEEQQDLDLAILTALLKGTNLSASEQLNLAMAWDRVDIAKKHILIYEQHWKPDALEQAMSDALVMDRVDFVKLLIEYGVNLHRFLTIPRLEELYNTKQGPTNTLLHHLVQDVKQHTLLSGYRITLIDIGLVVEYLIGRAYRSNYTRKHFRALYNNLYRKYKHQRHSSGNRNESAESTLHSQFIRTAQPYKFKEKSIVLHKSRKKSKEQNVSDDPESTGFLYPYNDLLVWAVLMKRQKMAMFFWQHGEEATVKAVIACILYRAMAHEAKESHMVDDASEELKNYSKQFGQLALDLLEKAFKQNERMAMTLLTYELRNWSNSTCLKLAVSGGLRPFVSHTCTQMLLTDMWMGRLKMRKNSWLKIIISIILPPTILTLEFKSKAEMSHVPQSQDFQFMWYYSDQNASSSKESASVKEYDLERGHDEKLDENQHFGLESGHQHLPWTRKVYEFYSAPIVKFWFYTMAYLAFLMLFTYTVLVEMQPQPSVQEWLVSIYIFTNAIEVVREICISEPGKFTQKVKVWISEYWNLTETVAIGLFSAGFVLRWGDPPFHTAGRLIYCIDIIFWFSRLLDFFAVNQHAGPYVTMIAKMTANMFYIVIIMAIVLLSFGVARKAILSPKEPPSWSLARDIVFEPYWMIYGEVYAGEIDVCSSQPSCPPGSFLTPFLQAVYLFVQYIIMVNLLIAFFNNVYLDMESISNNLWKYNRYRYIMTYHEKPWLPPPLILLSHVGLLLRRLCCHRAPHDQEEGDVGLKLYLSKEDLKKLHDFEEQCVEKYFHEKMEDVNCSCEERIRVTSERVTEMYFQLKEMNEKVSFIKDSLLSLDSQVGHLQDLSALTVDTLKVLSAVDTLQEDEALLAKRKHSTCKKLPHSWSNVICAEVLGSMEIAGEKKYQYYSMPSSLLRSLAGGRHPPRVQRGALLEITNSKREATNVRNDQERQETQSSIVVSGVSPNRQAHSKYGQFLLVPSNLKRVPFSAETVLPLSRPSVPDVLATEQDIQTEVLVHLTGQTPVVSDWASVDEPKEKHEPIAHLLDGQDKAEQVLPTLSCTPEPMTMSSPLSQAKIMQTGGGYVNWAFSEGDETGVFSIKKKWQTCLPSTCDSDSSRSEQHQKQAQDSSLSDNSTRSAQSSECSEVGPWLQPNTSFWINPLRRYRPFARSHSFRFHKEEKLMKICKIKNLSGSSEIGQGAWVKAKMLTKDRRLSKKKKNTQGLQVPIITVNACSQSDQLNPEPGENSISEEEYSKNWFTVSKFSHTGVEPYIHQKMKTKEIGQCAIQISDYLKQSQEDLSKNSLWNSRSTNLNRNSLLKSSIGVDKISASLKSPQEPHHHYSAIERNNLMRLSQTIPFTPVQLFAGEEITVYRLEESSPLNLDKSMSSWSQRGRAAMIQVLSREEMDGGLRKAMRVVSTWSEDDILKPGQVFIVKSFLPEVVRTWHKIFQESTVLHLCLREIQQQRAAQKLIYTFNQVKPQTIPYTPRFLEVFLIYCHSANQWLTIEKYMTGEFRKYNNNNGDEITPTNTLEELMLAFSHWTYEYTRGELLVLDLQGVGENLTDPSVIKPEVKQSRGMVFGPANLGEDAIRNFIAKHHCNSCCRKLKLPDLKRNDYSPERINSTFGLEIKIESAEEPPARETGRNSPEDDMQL

[3] = target: T17, RPS6KA5(Kin.Dom.2-C-terminal) (Homo sapiens, UniProt O75582); experiment: KINOMEscan panel screen; assay type: binding; settings: read-out: Percent Control(%)
T17 construct: RPS6KA5(Kin.Dom.2-C-terminal); purchased DiscoveRx KINOMEscan (Ambit Biosciences)
T17 sequence (O75582 426-687 limits assumed): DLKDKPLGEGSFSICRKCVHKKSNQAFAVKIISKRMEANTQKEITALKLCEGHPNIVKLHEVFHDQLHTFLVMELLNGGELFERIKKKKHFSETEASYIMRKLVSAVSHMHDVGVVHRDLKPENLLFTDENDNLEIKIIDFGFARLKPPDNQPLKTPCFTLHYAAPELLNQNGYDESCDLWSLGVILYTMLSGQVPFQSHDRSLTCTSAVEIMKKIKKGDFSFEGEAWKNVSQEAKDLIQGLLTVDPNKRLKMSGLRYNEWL

PHKG2 = target: T18, PHKG2 (Homo sapiens, UniProt P15735); experiment: KINOMEscan panel screen; assay type: binding; settings: read-out: Percent Control(%)
T18 construct: purchased DiscoveRx KINOMEscan (Ambit Biosciences)

KIT = target: T19, KIT (Homo sapiens, UniProt P10721); experiment: KINOMEscan kinase binding assay (Kd)
T19 construct: DNA tag (qPCR read-out); purchased Ambit Biosciences (KINOMEscan service)

NEK4 = target: T20, NEK4 (Homo sapiens, UniProt P51957); experiment: KINOMEscan panel screen; assay type: binding; settings: read-out: Percent Control(%)
T20 construct: purchased DiscoveRx KINOMEscan (Ambit Biosciences)

PIK3CA(M1043I) = target: T21, PIK3CA(M1043I) (Homo sapiens, UniProt P42336, M1043I); experiment: KINOMEscan panel screen; assay type: binding; settings: read-out: Percent Control(%)
T21 construct: purchased DiscoveRx KINOMEscan (Ambit Biosciences)

Molm-13 = experiment: MTT cell viability assay; settings: Homo sapiens, MOLM-13, 72 h
DCAMKL1 = target: T22, DCAMKL1 (Homo sapiens, UniProt O15075); experiment: KINOMEscan panel screen; assay type: binding; settings: read-out: Percent Control(%)
T22 construct: purchased DiscoveRx KINOMEscan (Ambit Biosciences)

PKNB(M.tuberculosis) = target: T23, PKNB(M.tuberculosis) (Mycobacterium tuberculosis, UniProt P9WI81); experiment: KINOMEscan panel screen; assay type: binding; settings: read-out: Percent Control(%)
T23 construct: purchased DiscoveRx KINOMEscan (Ambit Biosciences)
T23 sequence (P9WI81 whole entry): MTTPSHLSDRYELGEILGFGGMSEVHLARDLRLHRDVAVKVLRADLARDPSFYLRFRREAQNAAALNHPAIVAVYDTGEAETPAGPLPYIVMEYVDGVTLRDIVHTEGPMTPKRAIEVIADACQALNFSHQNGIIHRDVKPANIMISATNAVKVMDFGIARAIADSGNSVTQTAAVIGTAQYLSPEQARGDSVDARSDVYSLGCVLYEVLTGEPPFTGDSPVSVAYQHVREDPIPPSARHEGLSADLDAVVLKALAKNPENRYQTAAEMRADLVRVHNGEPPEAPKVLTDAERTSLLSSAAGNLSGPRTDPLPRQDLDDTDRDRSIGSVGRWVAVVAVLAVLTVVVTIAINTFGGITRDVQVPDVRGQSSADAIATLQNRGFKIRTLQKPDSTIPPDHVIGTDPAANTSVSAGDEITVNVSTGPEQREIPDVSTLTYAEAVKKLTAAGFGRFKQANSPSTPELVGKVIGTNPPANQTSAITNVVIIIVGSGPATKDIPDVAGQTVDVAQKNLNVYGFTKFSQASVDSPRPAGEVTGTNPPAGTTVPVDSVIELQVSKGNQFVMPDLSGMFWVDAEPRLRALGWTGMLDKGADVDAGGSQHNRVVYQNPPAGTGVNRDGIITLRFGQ

PRKR = target: T24, PRKR (Homo sapiens, UniProt P19525); experiment: KINOMEscan panel screen; assay type: binding; settings: read-out: Percent Control(%)
T24 construct: purchased DiscoveRx KINOMEscan (Ambit Biosciences)

EGFR(L858R,T790M) = target: T25, EGFR(L858R,T790M) (Homo sapiens, UniProt P00533, L858R/T790M); experiment: KINOMEscan panel screen; assay type: binding; settings: read-out: Percent Control(%)
T25 construct: purchased DiscoveRx KINOMEscan (Ambit Biosciences)
T25 sequence (P00533 25-1210 T790M/L858R): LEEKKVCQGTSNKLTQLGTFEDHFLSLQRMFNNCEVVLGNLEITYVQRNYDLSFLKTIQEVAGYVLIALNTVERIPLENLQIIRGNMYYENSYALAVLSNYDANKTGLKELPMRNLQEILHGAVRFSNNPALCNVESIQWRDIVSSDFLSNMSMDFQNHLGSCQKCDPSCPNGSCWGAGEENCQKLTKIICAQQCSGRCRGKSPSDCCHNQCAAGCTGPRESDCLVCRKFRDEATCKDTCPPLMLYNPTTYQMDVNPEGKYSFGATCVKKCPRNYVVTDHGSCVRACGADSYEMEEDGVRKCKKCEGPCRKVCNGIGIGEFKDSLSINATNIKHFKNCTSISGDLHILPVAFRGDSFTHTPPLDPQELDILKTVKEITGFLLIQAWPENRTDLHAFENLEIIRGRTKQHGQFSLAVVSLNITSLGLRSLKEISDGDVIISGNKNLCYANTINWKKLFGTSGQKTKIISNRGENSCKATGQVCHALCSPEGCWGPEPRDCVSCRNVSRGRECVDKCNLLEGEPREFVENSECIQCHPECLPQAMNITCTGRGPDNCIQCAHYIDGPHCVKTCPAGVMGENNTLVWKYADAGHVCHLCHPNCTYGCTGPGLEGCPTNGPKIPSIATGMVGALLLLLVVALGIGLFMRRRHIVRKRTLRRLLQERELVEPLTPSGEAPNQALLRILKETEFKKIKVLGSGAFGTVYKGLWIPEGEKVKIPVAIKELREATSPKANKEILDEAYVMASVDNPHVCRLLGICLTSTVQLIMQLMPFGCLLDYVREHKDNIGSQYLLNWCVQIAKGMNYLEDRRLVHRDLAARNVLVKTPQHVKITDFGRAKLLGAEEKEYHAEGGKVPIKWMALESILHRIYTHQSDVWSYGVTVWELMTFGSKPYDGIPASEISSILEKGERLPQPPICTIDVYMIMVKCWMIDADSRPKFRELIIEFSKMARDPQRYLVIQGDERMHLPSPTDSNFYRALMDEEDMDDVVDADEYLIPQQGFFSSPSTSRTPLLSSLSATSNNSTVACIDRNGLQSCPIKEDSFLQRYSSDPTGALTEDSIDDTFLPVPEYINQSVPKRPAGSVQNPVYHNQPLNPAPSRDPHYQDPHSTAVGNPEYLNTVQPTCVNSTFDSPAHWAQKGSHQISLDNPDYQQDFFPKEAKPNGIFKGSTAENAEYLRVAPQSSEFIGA

KIT(V559D,T670I) = target: T26, KIT(V559D,T670I) (Homo sapiens, UniProt P10721, T670I/V559D); experiment: KINOMEscan panel screen; assay type: binding; settings: read-out: Percent Control(%)
T26 construct: purchased DiscoveRx KINOMEscan (Ambit Biosciences)

MV4-11 tumor xenograft = MV4-11 tumor xenograft model; assay type: in vivo
Description: Female 5- to 6-week-old NOD-SCID mice (Beijing HFK Bioscience) were housed in a sterile environment and fed a standard diet ad libitum. […] A 100- μl aliquot of the cell suspension was injected subcutaneously into the hind flank of each mouse to establish the xenograft model. […] The tumor volume was calculated using the following formula: volume = a × b^2/2 (a, long diameter; b, short diameter).
Paraffin-embedded tumors were subjected to immunostaining with Ki67 (Thermo Fisher), transferase-mediated dUTP nick-end labeling (TUNEL, Thermo Fisher). The representative images were taken on a LEICA DM 2500 microscope with a LEICA DFC425 C camera. Image acquisition software: LAS V3.7.
(a) MV4-11 cells (10^7 cells/mouse) were s.c. inoculated into NOD-SCID mice. […] The tumor volume and body weight were measured every 3 days during the treatment. The mean values ± SD are shown. […] Ki67 and TUNEL were detected with immunohistochemical. Representative images were shown. […] Tumors were harvested at the indicated time points, and the FLT3 signaling pathway was detected using western blot assays. The experiments were performed on three groups of mice. The results of the other two groups are given in Supplementary Data (Supplementary Fig. S8). […] The results shown in the histogram are the statistic data of three groups of mice. ns, not statistically significant, *P < 0.05, **P < 0.01. (e) The same harvested tumors were detected using real-time qPCR assays to test the expression of AXIN2 and NKD1 (the target genes of Wnt/β-catenin pathway). All results were normalized to the level of GAPDH (mean ± SEM from triplicate groups). ns, not statistically significant, *P < 0.05, **P < 0.01. (f) Kaplan-Meier plot of survival. […] The plasma concentrations were determined using liquid–liquid extraction followed by high-performance liquid chromatography (HPLC) with tandem mass spectrometric detection.

O=C(Nc1ccc(Oc2ncnc3[nH]ncc23)cc1)Nc1ccc(Cl)c(C(F)(F)F)c1 [Compound 1, 1-(4-(1H-pyrazolo[3,4-d]pyrimidin-4-yloxy)phenyl)-3-(4-chloro-3-(trifluoromethyl)phenyl)urea]
IC50 (ERN1): > 10000 nM

CC(C)(C)c1cc(NC(=O)Nc2ccc(Oc3ncnc4[nH]ncc34)c(F)c2)no1 [SKLB-677, 1-(4-(1H-pyrazolo[3,4-d]pyrimidin-4-yloxy)-3-fluorophenyl)-3-(5-tert-butylisoxazol-3-yl)urea]
remaining binding at 10 µM (NDR2): 56%
remaining binding at 10 µM (MAP4K4): 0%
remaining binding at 10 µM (MARK2): 98%
remaining binding at 10 µM (NEK1): 64%
remaining binding at 10 µM (PRKD1): 98%
remaining binding at 10 µM [1]: 5.2%
remaining binding at 10 µM [2]: 21%
remaining binding at 10 µM (CDKL5): 5%
remaining binding at 10 µM (AKT3): 100%
remaining binding at 10 µM (FLT3(N841I)): 0%
remaining binding at 10 µM (EPHA1): 9.2%
remaining binding at 10 µM (AMPK-alpha1): 3%
remaining binding at 10 µM (DAPK1): 74%
remaining binding at 10 µM (HPK1): 13%
remaining binding at 10 µM (AAK1): 72%
remaining binding at 10 µM (TRPM6): 89%
remaining binding at 10 µM [3]: 100%
remaining binding at 10 µM (PHKG2): 100%
Kd (KIT): 3.1 nM
remaining binding at 10 µM (NEK4): 38%
remaining binding at 10 µM (PIK3CA(M1043I)): 100%
IC50 (Molm-13): 0.116 nM
IC50 (Molm-13; read-out: Cell viability IC50): 0.116 nM
remaining binding at 10 µM (DCAMKL1): 100%
remaining binding at 10 µM (PKNB(M.tuberculosis)): 100%
remaining binding at 10 µM (PRKR): 57%
remaining binding at 10 µM (EGFR(L858R,T790M)): 75%
remaining binding at 10 µM (KIT(V559D,T670I)): 0.1%
tumor inhibition rate (MV4-11 tumor xenograft; 1 mg/kg/d orally once per day for 21 days): 66%
tumor response (MV4-11 tumor xenograft; 3 mg/kg/d orally for 8 days): complete tumor regression
toxicity in xenograft mice (MV4-11 tumor xenograft; 10 mg/kg/d or 3 mg/kg/d orally): without obvious toxicity
tumor response (MV4-11 tumor xenograft; 10 mg/kg/d orally for 3 days): complete tumor regression
Ki67-positive cells in tumors compared with control group (MV4-11 tumor xenograft; immunohistochemistry): evidently fewer
percentage of TUNEL-positive cells in tumors compared with vehicle (MV4-11 tumor xenograft; immunohistochemistry): increased
